Data from ChEMBL document CHEMBL1146256, “ATP-conjugated peptide inhibitors for calmodulin-dependent protein kinase II” (Bioorg Med Chem Lett, 2007).
Starred links: 1 amine or outer side, 2 acyl side, 3 side chain; linkers in the order of their positions; H or OH if unused. Non-standard residues stand in square brackets, D forms with d. Residues, ends and D or L forms follow the SMILES beside them. ξ: configuration not given here. *: point of attachment. X1 = Nc1ncnc2c1ncn2[C@@H]1O[C@H](COP(=O)(O)OP(=O)(O)OP(=O)(O)OC2CC(=O)N(CCOCCOCCOCCN3C(=O)CC(S[C@@H](N[*:1])C(=O)[*:2])C3=O)C2=O)[C@@H](O)[C@H]1O; Biotin = O=C1N[C@H]2[C@H](CS[C@H]2CCCCC(=O)*)N1; ξF = NC(Cc1ccccc1)C(=O)O

test: Inhibition of CaMK2; parameters: species or system Homo sapiens

| Compound | IC50 |
| --- | --- |
| CC(C)C[C@H](NC(=O)[C@H](C)NC(=O)[C@H](CC(=O)O)NC(=O)CNCC(=O)[C@H](CNC(=O)CCOP(=O)(O)OP(=O)(O)OP(=O)(O)OC[C@@H]1O[C@H](n2cnc3c(N)ncnc32)[C@@H](O)[C@H]1O)NC(=O)[C@H](CCC(=O)O)NC(=O)[C@H](CCC(N)=O)NC(=O)[C@H](CCCNC(=N)N)NC(=O)[C@H](CCCNC(=N)N)NC(=O)[C@H](CC(C)C)NC(=O)[C@H](C)NC(=O)[C@H](CCCCN)NC(=O)[C@H](CCCCN)NC(=O)CCCC[C@@H]1SC[C@@H]2NC(=O)N[C@@H]21)C(=O)O | 1320 nM |
| H-KKALRRQEAVDAL-OH | 320 nM |
| H-KKALRRQEAGDAL-OH | 4000 nM |
| CC(C)C[C@H](NC(=O)[C@H](C)NC(=O)[C@H](CCCCN)NC(=O)[C@H](CCCCN)NC(=O)CCCC[C@@H]1SC[C@@H]2NC(=O)N[C@@H]21)C(=O)N[C@@H](CCCNC(=N)N)C(=O)N[C@@H](CCCNC(=N)N)C(=O)N[C@@H](CCC(N)=O)C(=O)N[C@@H](CCC(=O)O)C(=O)N[C@@H](C)C(=O)NCC(=O)N[C@@H](CC(=O)O)C(=O)N[C@@H](C)C(=O)N[C@@H](CC(C)C)C(=O)N[C@H](SC1CC(=O)N(CCOCCOCCOCCN2C(=O)CC(OP(=O)(O)OP(=O)(O)OP(=O)(O)OC[C@H]3O[C@@H](n4cnc5c(N)ncnc54)[C@H](O)[C@@H]3O)C2=O)C1=O)C(=O)O (some centres undefined) (Biotin-KKALRRQEAGDAL[X1]-OH) | 18000 nM |

Stronger by IC50, values ahead:

| IC50 | Compound |
| --- | --- |
| 305 nM | CC(C)C[C@H](NC(=O)[C@H](C)NC(=O)[C@H](CCCCN)NC(=O)[C@H](CCCCN)NC(=O)CCCC[C@@H]1SC[C@@H]2NC(=O)N[C@@H]21)C(=O)N[C@@H](CCCNC(=N)N)C(=O)N[C@@H](CCCNC(=N)N)C(=O)N[C@@H](CCC(N)=O)C(=O)N[C@@H](CCC(=O)O)C(=O)N[C@@H](C)C(=O)N[C@H](C(=O)N[C@@H](CC(=O)O)C(=O)N[C@@H](C)C(=O)N[C@@H](CC(C)C)C(=O)N[C@H](SC1CC(=O)N(CCOCCOCCOCCN2C(=O)CC(OP(=O)(O)OP(=O)(O)OP(=O)(O)OC[C@H]3O[C@@H](n4cnc5c(N)ncnc54)[C@H](O)[C@@H]3O)C2=O)C1=O)C(=O)O)C(C)C (some centres undefined) (Biotin-KKALRRQEAVDAL[X1]-OH) |
| 181 nM | CC(C)C[C@H](NC(=O)[C@H](C)NC(=O)[C@H](CC(=O)O)NC(=O)C(Cc1ccccc1)NC(=O)[C@H](C)NC(=O)[C@H](CCC(=O)O)NC(=O)[C@H](CCC(N)=O)NC(=O)[C@H](CCCNC(=N)N)NC(=O)[C@H](CCCNC(=N)N)NC(=O)[C@H](CC(C)C)NC(=O)[C@H](CCCCN)NC(=O)[C@H](CCCCN)NC(=O)[C@H](CCCCN)NC(=O)CCCC[C@@H]1SC[C@@H]2NC(=O)N[C@@H]21)C(=O)N[C@H](SC1CC(=O)N(CCOCCOCCOCCN2C(=O)CC(OP(=O)(O)OP(=O)(O)OP(=O)(O)OC[C@H]3O[C@@H](n4cnc5c(N)ncnc54)[C@H](O)[C@@H]3O)C2=O)C1=O)C(=O)O (some centres undefined) (Biotin-KKKLRRQEA[ξF]DAL[X1]-OH) |
| 76 nM | H-KKKLRRQEAFDAL-OH |
| 67 nM | CC(C)C[C@H](NC(=O)[C@H](C)NC(=O)[C@H](CC(=O)O)NC(=O)[C@@H](NCC(=O)[C@H](CNC(=O)CCOP(=O)(O)OP(=O)(O)OP(=O)(O)OC[C@@H]1O[C@H](n2cnc3c(N)ncnc32)[C@@H](O)[C@H]1O)NC(=O)[C@H](CCC(=O)O)NC(=O)[C@H](CCC(N)=O)NC(=O)[C@H](CCCNC(=N)N)NC(=O)[C@H](CCCNC(=N)N)NC(=O)[C@H](CC(C)C)NC(=O)[C@H](C)NC(=O)[C@H](CCCCN)NC(=O)[C@H](CCCCN)NC(=O)CCCC[C@@H]1SC[C@@H]2NC(=O)N[C@@H]21)C(C)C)C(=O)O |
| 22 nM | CC(C)C[C@H](NC(=O)[C@H](C)NC(=O)[C@H](CC(=O)O)NC(=O)[C@H](Cc1ccccc1)NCC(=O)[C@H](CNC(=O)CCOP(=O)(O)OP(=O)(O)OP(=O)(O)OC[C@@H]1O[C@H](n2cnc3c(N)ncnc32)[C@@H](O)[C@H]1O)NC(=O)[C@H](CCC(=O)O)NC(=O)[C@H](CCC(N)=O)NC(=O)[C@H](CCCNC(=N)N)NC(=O)[C@H](CCCNC(=N)N)NC(=O)[C@H](CC(C)C)NC(=O)[C@H](CCCCN)NC(=O)[C@H](CCCCN)NC(=O)[C@H](CCCCN)NC(=O)CCCC[C@@H]1SC[C@@H]2NC(=O)N[C@@H]21)C(=O)O |
